Experimental data reported in patent publication US8361992B2 (Dekk-Tec, Inc., priority 2009, dated 2013).
Where two headings read alike, the source gives them in different places.

Key:
[1] = tested on: 9 L rat glioma cells; assay: Activity in vitro against 9L rat glioma cells in culture; type: cell-based; conditions: for IC50: dose range 0.1-1.00 μg/ml
Procedure: The IC50 for each compound and also ifosfamide was determined (Table 3).

[2] = tested on: Sprague Dawley female rats; assay: Rat neurobehavioral modified Morris water maze and pathology; type: in vivo; conditions: for Pathology five days later (gross, confirmed by histology) / Memory and learning time intervals: single IP dose: IFOS 400, 4-HOOI 200, 4-HOOI.Lys 300 mg/kg; for Memory and learning time intervals: 1, 2, 3, 20 hours post-dosing
Procedure: Rat Dosing: Neuro-oncology studies with 4-HOOI were conducted to evaluate the product as compared to ifosfamide in a rat neurobehavioral modified Morris water maze. Ifosfamide produces coma and neuro-edema in high doses. […] Timings (six at each time) were measured at 1, 2, 3, and 20 hours post-dosing to monitor learning and memory. […] Histological examinations confirmed the gross observations.

[3] = tested on: Rat glioma 9 L cells; assay: 9L rat glioma implanted subcutaneously in rats; conditions: doses as in Table 7
Procedure: Rat glioma 9 L cells (10^6 cells) were implanted subcutaneously in female Hsd:SD rats. […] Temozolomide (TMZ) was administered orally three times, four days apart. The rats were followed for 54 days.

[4] = Stability profile of bulk 4-HOOI vs. 4-HOOI.Lys (HPLC, NMR)
[5] = tested on: Human glioblastoma cell line U251; conditions: cited from earlier work
[6] = for AUC values for acrolein (trapezoidal rule): 0-120, IV CPA 250, IFOS 400, 4-HOOI 100 mg/kg
Procedure: Half of each plasma sample was lyophilized to collect ACR in a dry ice/methanol-cooled trap. […] For chloroacetaldehyde, the other half of the plasma sample was treated directly with the above trapping agent and the same procedure was used (6 mins) compared with synthetic controls.

[7] = tested on: OVCAR-3 Ovarian; assay: OVCAR-3 xenograft (sc); type: in vivo, human; conditions: sc implant; intraperitoneal treatment; MTD
Procedure: (§1) 4-HOOI was tested against a number of additional solid tumor xenografts and leukemias.

[8] = tested on: SK-MEL-31 Melanoma; assay: SK-MEL-31 xenograft (sc); type: in vivo, human; conditions: sc implant; intraperitoneal treatment; MTD
Procedure: as §1

[9] = tested on: Human glioblastoma cell line U251; assay: U251 glioblastoma implanted intracranially in mice; conditions: in vivo
Procedure: (§2) Human breast cancer cell lines MX-1 and ZR75-1 were implanted subcutaneously (SC). Human glioblastoma cell line U251 was implanted intracranially (IC) and P388 CPA-resistant murine leukemia cell line was injected intraperitoneally (IP). For IC implanted tumor cells, treatment was begun 5-7 days post-inoculation. For SC tumors, treatment was begun when the tumor was palpable (5-10 days post-inoculation). Mice were treated with the indicated dose of drug intraperitoneally once per day for 5 days.

[10] = tested on: SAOS-2 Osteosarcoma; assay: SAOS-2 xenograft (sc); type: in vivo, human; conditions: sc implant; intraperitoneal treatment; MTD
Procedure: as §1

[11] = tested on: Human breast cancer cell line ZR75-1; assay: ZR-75-1 xenograft implanted SC in mice; type: in vivo; conditions: IP once per day for 5 days, 4-HOOI 90, IFOS 40 mg/kg/day
Procedure: as §2

[12] = tested on: mice; assay: Mouse IV dosing toxicology; type: in vivo
Procedure: Specific emphasis was placed on documenting potential toxicities associated with IV administered peroxides, namely convulsions, hemolysis, arterial gas emboli-pulmonary damage, and neurological pathology.
Ranges of dosing were 60-400 mg/kg. […] Animals were monitored for 14 days post treatment.

[13] = tested on: NCI-H23 Non-small cell lung carcinoma; assay: NCI-H23 xenograft (sc); type: in vivo, human; conditions: sc implant; intraperitoneal treatment; MTD
Procedure: as §1

[14] = tested on: NCI-H69 Small cell lung carcinoma; assay: NCI-H69 xenograft (sc); type: in vivo, human; conditions: sc implant; intraperitoneal treatment; MTD
Procedure: as §1

[15] = tested on: Human breast cancer cell line MX-1; assay: MX-1 xenograft implanted SC in mice; type: in vivo; conditions: IP once per day for 5 days; for MX-1 T-C: 4-HOOI 90, IFOS 40, IPM 40 mg/kg/day
Procedure: as §2

[16] = tested on: P388 CPA-resistant murine leukemia cell line; assay: P388/CPA leukemia injected IP in mice; type: in vivo; conditions: IP once per day for 5 days, 4-HOOI 90, IFOS 40, IPM 40 mg/kg/day
Procedure: as §2

[17] = tested on: humans; conditions: cited from earlier work

Compound: NCCCCC(N)C(=O)O.O=P1(NCCCl)OCCC(OO)N1CCCl (stereo not shown) [4-HOOI•Lys]
- Notes [1]: Stabilized form prevented
- IC50 [1]: >1.0 µg/mL
- Pathology five days later (gross, confirmed by histology) [2]: did not reveal hemorrhagic cystitis, renal tubular necrosis, or bone marrow depletion
- Memory and learning time intervals [2]: no significant differences
- CR (animals) ([3]; SC in female Hsd:SD rats, followed 54 days): 9/9
- Hematuria ([3]; rats bearing 9L glioma): No hematuria
- Weight loss ([3]; rats bearing 9L glioma): No weight loss
- NMR ([4]; Time 0): Stable
- NMR ([4]; Time 2 months): Stable
- NMR ([4]; Time 4 months): Stable
- NMR ([4]; Time 6.5 months): Stable
- NMR ([4]; Time 10 months): Stable

Compound: O=NN(CCCl)C(=O)NCCCl [BCNU, bis-chloronitrosourea]
- ILS ([5]; gold standard for the treatment of gliomas): 72 % ILS

Compound: O=P1(N(CCCl)CCCl)NCCCO1 (stereo not shown) [CPA, cyclophosphamide]
- AUC values for acrolein (trapezoidal rule) [6]: 1520 mg·min/mL

Compound: COc1nc(C(Cl)(Cl)Cl)c(Cl)c(OC(=O)O[C@H]2CC[C@@]3(C)C(=CC[C@H]4[C@@H]5CC[C@H]([C@H](C)CCCC(C)C)[C@@]5(C)CC[C@@H]43)C2)c1Cl [DM-CHOC-PEN, 4-demethylcholesteryloxycarbonylpenclomedine]
- LTS in U251 glioblastoma ([5]; Morgan et al. 2009): 52 % LTS

Compound: O=P1(NCCCl)OCCCN1CCCl (stereo not shown) [IFOS, ifosfamide]
- T-C (Days Delay), OVCAR-3 [7]: 12.4 days
- Notes [1]: Inactive without
- IC50 ([1]; Glioma cell, read-out: IC50): > 1 µg/mL
- T-C (Days Delay), SK-MEL-31 [8]: 10.9 days
- AUC values for acrolein (trapezoidal rule) [6]: 960 mg·min/mL
- Urinary hemorrhagic cystitis ([6]; mice): the pathology occurred at day 5 post dosing
- U251 CR (complete response, animals) [9]: (0/5 CR)
- U251 T-C [9]: 50 days
- T-C (Days Delay), SAOS-2 [10]: >61.9 days
- ZR-75-1 CR (complete response) [11]: (17% CR)
- ZR-75-1 T-C [11]: >43.8 days
- Clinical signs ([2]; IFOS 400 mg/kg single IP dose): shakes and tremors
- Bone marrow evaluations ([2]; IFOS 400 mg/kg single IP dose, five days later): pancytopenia
- Pathology five days later (gross, confirmed by histology) [2]: hemorrhagic cystitis with gross bleeding
- Memory and learning time intervals [2]: normal learning behavioral patterns
- Highest tolerated single IV dose [12]: 400 mg/kg
- Hematuria ([3]; rats bearing 9L glioma): observed
- T-C (Days Delay), NCI-H23 [13]: 13.7 days
- T-C (Days Delay), NCI-H69 [14]: 6.2 days
- MX-1 LTS (long term survivors) ([15]; 4-HOOI 90, IFOS 40 mg/kg/day): (No LTS)
- MX-1 T-C [15]: 8.6 days
- P388/CPA (% ILS) [16]: +42 % ILS

Compound: O=P(O)(NCCCl)NCCCl [IPM, isophosphoramide mustard]
- Dose limiting toxicity in humans [17]: renal tubular necrosis was dose limiting
- MX-1 T-C [15]: 2.1 days
- P388/CPA (% ILS) [16]: +85 % ILS
